From patent US10150748B2, “Salt or abexinostat, associated crystalline form, a process for their preparation and pharmaceutical compositions containing them” (Pharmacyclics LLC, priority 2013, dated 2018)

Experiment: Hygroscopicity by dynamic vapor sorption (DVS)
Assay type: physicochemical
Details: relative humidities from 0% to 90% at 25° C.
Experimental: Hygroscopicity of form I of abexinostat tosylate was assessed using dynamic vapor sorption (DVS) technique. 5 to 10 mg of the drug substance test sample were accurately weighed into a DVS sample pan working at 25° C. under controlled humidity. The mass variation was recorded whilst drying under 0 percent RH (relative humidity) and during two subsequent cycles of increasing and decreasing linear variations of relative humidity in the range 0-90 percent RH at a rate of 10 percent per hour. The relative humidity was maintained constant when it reached either 0 or 90 percent RH until the mass variation was less than 0.002 percent, per minute within a limit of time of 15 h.

increase in weight detected by DVS analysis: lower than 0.5%
Compound: CN(C)Cc1c(C(=O)NCCOc2ccc(C(=O)NO)cc2)oc2ccccc12.Cc1ccc(S(=O)(=O)O)cc1 [form I of abexinostat tosylate, N-hydroxy-4-{2-[3-(N,N-dimethylaminomethyl)benzofuran-2-ylcarbonylamino]ethoxy}benzamide tosylate]
